Results published in patent EP1268431B1 (Wyeth, priority 2000, dated 2001).

Key:
[1] = test system: human adenocarcinoma cell line CaCo-2; experiment: Cell Based Screen for Inhibitors of Raf Kinase, CaCo-2 cells; details: Homo sapiens, Caco-2, 96 h, CaCo-2, four days, SRB
Procedure: (§1) • Cell Lines: Human adenocarcinoma cell line LoVo which is known to be growth inhibited by low nM concentrations of a reference standard inhibitor of Ras and human adenocarcinoma cell line CaCo-2, which is known to be growth resistant to the same reference compound. • Cell Media: RPMI 1640 with 10% Fetal Bovine Serum supplemented with L-glutamine and Pennicilin/Streptomycin. • Compounds: Supplied usually as a 10 mM stock in 100% DMSO. • Normal Saline: 150 mM NaCl • Trichloroacetic Acid (TCA): 50% (w/v) in water • Sulforhodamine B (SRB): 0.4% (w/v) in 1% Acetic Acid • Tris Base: 10 mM in water
(§2) Cells are plated at 2000 cells per well for cell line LoVo and 1500 cells for cell line CaCo-2 in 96 well plates. Cells are plated in media (200 µl) and allowed to adhere overnight at 37° C. At 24 hours post plating, compounds are added directly at a volume of 0.5 µl. For the qualitative screen (compounds screened at 25 µM) compound is added directly to cells. For the quantitative screen, compound is first diluted in DMSO to generate concentrations of compound or reference standard of: 1, 5, 10 and 25 µM. It is advisable to make the dilutions in an identical 96 well plate so that compounds may be added using a multichannel micropipettor set at 0.5 µl. The cells are then incubated for four days after which the media is removed using a 12 well manifold by first tipping the plate forward at a 45 degree angle and then inserting the manifold in an upright orientation to prevent the tips of the manifold from disturbing cells at the bottom of the plate. 200 µl of normal saline is then added to each well using an 8 well multichannel pipettor, followed by the careful addition of 50 µl of 50% TCA. The plates are then incubated for 2 hours at 4 ° C, after which the supernatant is removed using the same technique as above and the plated washed twice with 200 µl water. The plates are then air dried and 50 µl of SRB stock solution is carefully added so that the entire bottom of each well is covered. This again may be used using an 8 well multichannel pipettor. The SRB is incubated with fixed cells for 15 minutes at room temperature after which the SRB is removed with the manifold as described above and the plates washed twice with 350 µl of 1% acetic acid per well each time.The plates are then air dried after which the bound SRB is released from protein by the addition of 200 µl of Tris base. Resolubilizing the SRB is aided by placing the plates on a rotator for 15-30 minutes. The absorbance of each well is determined at 550 or 562 nm using a microtiter plate reader.
(§3) Each compound or dilution thereof is performed in triplicate. Outliers are identified by visual inspection of the data. Each plate should have a "0" control (vehicle only).
(§4) Quantitative Assay: A standard curve is constructed by plotting the concentration of compound against the average absorbance calculated at that concentration. A curve is plotted and the concentration at which the curve passes through the 50% the absorbance mark seen in the "0" control well is the IC50 calculated for that compound. […]

[2] = test system: Human adenocarcinoma cell line LoVo; experiment: Cell Based Screen for Inhibitors of Raf Kinase, LoVo cells; details: Homo sapiens, 96 h, four days, SRB
Procedure: as §1, §2, §3, §4

IC50 [1] [nM] | IC50 [2] [nM] | Structure (SMILES)
> 1000 | 25 | Cn1ccnc1Sc1ccc(Nc2c(C#N)cnc3cc(-c4ccc(CN5CCC(N6CCCC6)CC5)cn4)ccc23)cc1Cl [Example 173, 4-{3-chloro-4-[(1-methyl-1H-imidazol-2-yl)sulfanyl]anilino}-7-(5-{[4-(1-pyrrolidinyl)-1-piperidinyl]methyl}-2-pyridinyl)-3-quinolinecarbonitrile]
4600 | 2000 | N#Cc1cnc2cc(-c3cc(CN4CCOCC4)c(CN4CCOCC4)s3)ccc2c1Nc1ccc(Oc2ccccc2)cc1 [Example 168, 7-[4,5-bis(4-morpholinylmethyl)-2-thienyl]-4-(4-phenoxyanilino)-3-quinolinecarbonitrile]
> 1000 | 74 | CN1CCN(Cc2ccc(-c3ccc4c(Nc5ccc(Sc6nccn6C)c(Cl)c5)c(C#N)cnc4c3)cn2)CC1 [Example 221, 4-({3-chloro-4-[(1-methyl-1H-imidazol-2-yl)sulfanyl]phenyl}amino)-7-{6-[(4-methyl-1-piperazinyl)methyl]-3-pyridinyl}-3-quinolinecarbonitrile]
2200 | 3800 | Cn1ccnc1Sc1ccc(Nc2c(C#N)cnc3cc(-c4ccc(CN5CCOCC5)cc4)ccc23)cc1Cl [Example 63, 4-{3-Chloro-4-[(1-methyl-1H-imidazol-2-yl)sulfanyl]anilino}-7-[4-(4-morpholinylmethyl)phenyl]-3-quinolinecarbonitrile]
> 1000 | 9.5 | Cn1ccnc1Sc1ccc(Nc2c(C#N)cnc3cc(-c4cccc(CN5CCOCC5)n4)ccc23)cc1Cl [Example 199, 4-{3-chloro-4-[(1-methyl-1H-imidazol-2-yl)sulfanyl]anilino}-7-[6-(4-morpholinylmethyl)-2-pyridinyl]-3-quinolinecarbonitrile]
> 1000 | 48.5 | Cn1ccnc1Sc1ccc(Nc2c(C#N)cnc3cc(-c4ccc(CN5CCN(C(=O)OC(C)(C)C)CC5)cc4)ccc23)cc1Cl [Example 137, tert-butyl 4-{4-[4-({3-chloro-4-[(1-methyl-1H-imidazol-2-yl)sulfanyl]phenyl}amino)-3-cyano-7-quinolinyl]benzyl}-1-piperazinecarboxylate]
710 | 4.2 | Cn1ccnc1Sc1ccc(Nc2c(C#N)cnc3cc(-c4ccc(CN5CCC(O)CC5)s4)ccc23)cc1Cl [Example 159, 4-{3-chloro-4-[(1-methyl-1H-imidazol-2-yl)sulfanyl]anilino}-7-{5-[(4-hydroxy-1-piperidinyl)methyl]-2-thienyl}-3-quinolinecarbonitrile]
> 10000 | 3700 | N#Cc1cnc2cc(-c3csc(CN4CCOCC4)c3)ccc2c1Nc1ccc(Oc2ccccc2)cc1 [Example 7, 7-[5-(4-Morpholinylmethyl)-3-thienyl]-4-(4-phenoxyanilino)-3-quinolinecarbonitrile]
> 1000 | 4.6 | Cn1ccnc1Sc1ccc(Nc2c(C#N)cnc3cc(-c4ccc(CN5CCC(O)CC5)cc4)ccc23)cc1Cl [Example 134, 4-{3-chloro-4-[(1-methyl-1H-imidazol-2-yl)sulfanyl]anilino}-7-{4-[(4-hydroxy-1-piperidinyl)methyl]phenyl}-3-quinolinecarbonitrile]
> 1000 | 7.9 | Cn1ccnc1Sc1ccc(Nc2c(C#N)cnc3cc(-c4ccc(CN5CCC(O)CC5)cn4)ccc23)cc1Cl [Example 172, 4-{3-chloro-4-[(1-methyl-1H-imidazol-2-yl)sulfanyl]anilino}-7-{5-[(4-hydroxy-1-piperidinyl)methyl]-2-pyridinyl}-3-quinolinecarbonitrile]
> 1000 | 45.2 | CCOC(=O)C1CCN(c2ccc(-c3ccc4c(Nc5ccc(Sc6nccn6C)c(Cl)c5)c(C#N)cnc4c3)cn2)CC1 [Example 213, ethyl 1-{5-[4-({3-chloro-4-[(1-methyl-1H-imidazol-2-yl)sulfanyl]phenyl}amino)-3-cyano-7-quinolinyl]-2-pyridinyl}-4-piperidinecarboxylate]
> 1000 | 3.5 | Cn1ccnc1Sc1ccc(Nc2c(C#N)cnc3cc(-c4ccc(N5CCN(CCO)CC5)nc4)ccc23)cc1Cl [Example 215, 4-({3-chloro-4-[(1-methyl-1H-imidazol-2-yl)sulfanyl]phenyl}amino)-7-{6-[4-(2-hydroxyethyl)-1-piperazinyl]-3-pyridinyl}-3-quinolinecarbonitrile]
640 | 7.1 | CC(C)N1CCN(Cc2ccc(-c3ccc4c(Nc5ccc(Sc6nccn6C)c(Cl)c5)c(C#N)cnc4c3)cc2)CC1 [Example 98, 4-({3-Chloro-4-[(1-methyl-1H-imidazol-2-yl)sulfanyl]phenyl}amino)-7-{4-[(4-isopropyl-1-piperazinyl)methyl]phenyl}-3-quinolinecarbonitrile]
> 1000 | 5.7 | Cn1ccnc1Sc1ccc(Nc2c(C#N)cnc3cc(-c4ccc(N5CCC(O)CC5)nc4)ccc23)cc1Cl [Example 214, 4-({3-chloro-4-[(1-methyl-1H-imidazol-2-yl)sulfanyl]phenyl}amino)-7-[6-(4-hydroxy-1-piperidinyl)-3-pyridinyl]-3-quinolinecarbonitrile]
> 1000 | 6.4 | CN(CCO)Cc1ccc(-c2ccc3c(Nc4ccc(Sc5nccn5C)c(Cl)c4)c(C#N)cnc3c2)nc1 [Example 106, 4-({3-Chloro-4-[(1-methyl-1H-imidazol-2-yl)sulfanyl]phenyl}amino)-7-(5-{[(2-hydroxyethyl)(methyl)amino]methyl}-2-pyridinyl)-3-quinolinecarbonitrile]
> 10000 | > 10000 | N#Cc1cnc2cc(-c3csc(CN4CCOCC4)c3)ccc2c1Nc1ccc(Cc2ccccc2)cc1 [Example 8, 4-(4-Benzylanilino)-7-[5-(4-morpholinylmethyl)-3-thienyl]-3-quinolinecarbonitrile]
1250 | 6 | CN1CCN(Cc2ccc(-c3ccc4c(Nc5ccc(Sc6nccn6C)c(Cl)c5)c(C#N)cnc4c3)nc2)CC1 [Example 189, 4-{3-chloro-4-[(1-methyl-1H-imidazol-2-yl)sulanyl]anilino}-7-{5-[(4-methyl-1-piperazinyl)methyl]-2-pyridinyl}-3-quinolinecarbonitrile]
> 1000 | 330 | Cn1ccnc1Sc1ccc(Nc2c(C#N)cnc3cc(-c4ccc(CN5CCC(C(=O)O)CC5)cn4)ccc23)cc1Cl [Example 175, 1-{[6-(4-{3-chloro-4-[(1-methyl-1H-imidazol-2-yl)sulfanyl]anilino}-3-cyano-7-quinolinyl)-3-pyridinyl]methyl}-4-piperidinecarboxylic acid]
> 1000 | 6.8 | Cn1ccnc1Sc1ccc(Nc2c(C#N)cnc3cc(-c4ccc(CN5CCOCC5)o4)ccc23)cc1Cl [Example 154, 4-{3-chloro-4-[(1-methyl-1H-imidazol-2-yl)sulfanyl]anilino}-7-[5-(4-morpholinylmethyl)-2-furyl]-3-quinolinecarbonitrile]
> 1000 | 6.8 | CN1CCN(Cc2ccc(-c3ccc4c(Nc5ccc(Sc6nccn6C)c(Cl)c5)c(C#N)cnc4c3)cc2)CC1 [Example 135, 4-{3-chloro-4-[(1-methyl-1H-imidazol-2-yl)sulfanyl]anilino}-7-{4-[(4-methyl-1-piperazinyl)methyl]phenyl}-3-quinolinecarbonitrile]
